Source: US6676925B1, “Sigma-2 receptors as biomarkers of tumor cell proliferation” (priority 1996, dated 2004)

How the values were obtained:
Sigma-1 binding sites = Sigma-1 binding sites (Cavia porcellus, UniProt Q60492); test: σ1 binding assay, [^3H](+)-pentazocine in guinea pig brain membranes
Experimental: Test compounds were dissolved in ethanol (7 concentrations ranging from 1-1000 nM) then diluted in buffer for a total incubation volume of 0.5 mL. Assays were terminated by the addition of ice-cold 10 mM Tris HCl, pH 8.0 followed by rapid filtration through Whatman GF/B glass fiber filters (presoaked in 0.5% polyethylenimine) using a Brandel cell harvester (Gaithersburg, Md.). Filters were washed twice with 5 ML of ice cold buffer. Nonspecific binding was determined in the presence of 10 μM (+)-pentazocine. Liquid scintillation counting was carried out in EcoLite (+) (ICN Radiochemicals; Costa Mesa, Calif.) using a Beckman LS 6000IC spectrometer with a counting efficiency of 50%. Typical counts were 70 dpm/μg protein for total binding, 6 dpm/μg protein for nonspecific binding, and 64 dpm/μg protein for specific binding.
(§1) The IC50 values at sigma sites were determined in triplicate from non-linear regression of binding data as analyzed by JMP (SAS Institute; Cary, N.C.), using 5-10 concentrations of each compound. Ki values were calculated using the Cheng-Prusoff equation and represent mean values ±SEM. All assays were done in triplicate unless otherwise noted.

Sigma-2 sites = target: T1, Sigma-2 sites (Rattus norvegicus, UniProt Q5U3Y7); test: σ2 binding assay, [^3H]DTG in rat liver membranes in the presence of 100 nM (+)-pentazocine
T1 sequence (Q5U3Y7 1-176): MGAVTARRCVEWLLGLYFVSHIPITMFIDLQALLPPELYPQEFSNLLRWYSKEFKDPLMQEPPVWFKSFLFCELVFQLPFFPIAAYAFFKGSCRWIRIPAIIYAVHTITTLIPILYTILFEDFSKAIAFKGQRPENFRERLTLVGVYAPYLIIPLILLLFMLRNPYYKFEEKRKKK
Experimental: Assays were terminated by the addition of ice-cold 10 mM Tris-HCl, pH 8.0 followed by rapid filtration through Whatman GF/B glass fiber filters (presoaked in 0.5% polyethylenimine) using a Brandel cell harvester (Gaithersburg, Md.). Filters were then washed twice with 5 mL of ice cold buffer Nonspecific binding was determined in the presence of 5 μM DTG. Liquid scintillation counting was carried out in EcoLite(+) (ICN Radiochemicals; Costa Mesa, Calif.) using a Beckman LS 6000IC spectrometer with a counting efficiency of 50%. […] Typical counts for guinea pig brain were 16 dpm/μg protein for total binding, 2 dpm/μg protein for nonspecific binding, and 14 dpm/μg protein for specific binding.
as §1

Chain of Sigma-1 binding sites (Q60492 whole entry): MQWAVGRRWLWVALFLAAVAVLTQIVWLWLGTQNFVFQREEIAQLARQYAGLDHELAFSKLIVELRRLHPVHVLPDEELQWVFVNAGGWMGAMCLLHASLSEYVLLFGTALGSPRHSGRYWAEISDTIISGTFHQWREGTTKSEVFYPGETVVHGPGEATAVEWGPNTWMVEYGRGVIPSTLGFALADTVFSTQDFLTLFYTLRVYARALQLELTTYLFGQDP

Row | Structure (SMILES) | Ki (Sigma-1 binding sites) | Ki (Sigma-2 sites)
1 | COc1ccc(Cl)cc1NC(=O)O[C@H]1C[C@H]2CCC[C@@H](C1)N2Cc1ccccc1 [Compound 7, (3-endo)-9-Benzyl-9-azabicyclo[3.3.1]nonanyl-3-N-(5′-chloro-2′-methoxyphenyl)carbamate] | > 1000 nM | 63.5 nM
2 | COc1ccc(OC)c(NC(=O)O[C@H]2C[C@H]3CC[C@@H](C2)N3Cc2ccccc2)c1 [Compound 9, (3-endo)-8-Benzyl-8azabicyclo[3.2.1]octyl-3-N-(2′,5′-dimethoxyphenyl)-carbamate] | 72.4 nM | 22.1 nM
3 | CN1[C@@H]2CCC[C@H]1C[C@@H](OC(=O)Nc1ccc(Cl)c(Cl)c1)C2 [Compound 8, (3-endo)-9-Methyl-9-azabicyclo[3.3.1]nonanyl-3-N-(3′, 4′-dichlorophenyl)-carbamate] | 595 nM | 50.3 nM
4 | COc1ccc(Cl)cc1NC(=O)O[C@H]1C[C@H]2CC[C@@H](C1)N2C [Compound 3, (3-endo)-8-Methyl-8-azabicyclo[3.2.1]octyl-3-N-(2′-methoxy-5′-chloro-phenyl)-carbamate] | > 1000 nM | 156 nM
5 | CN1[C@@H]2CC[C@H]1C[C@@H](OC(=O)Nc1ccc(Cl)c(Cl)c1)C2 [Compound 2, (3-endo)-8-Methyl-8-azabicyclo[3.2.1]octyl-3-N-(3′, 4′-dichlorophenyl)-carbamate] | > 1000 nM | 36.9 nM
6 | COc1ccc(OC)c(NC(=O)O[C@H]2C[C@H]3CCC[C@@H](C2)N3Cc2ccccc2)c1 [Compound 5, (3-endo)-9-Benzyl-9-azabicyclo[3.3.1]nonanyl-3-N-(2′, 5′-dimethoxyphenyl)-carbamate] | 329 nM | 28.2 nM
7 | O=C(Nc1ccc(Cl)c(Cl)c1)O[C@H]1C[C@H]2CCC[C@@H](C1)N2Cc1ccccc1 [Compound 4, (3-endo)-9-Benzyl-9-azabicyclo[3.3.1]nonanyl-3-N-(3′, 4′-dichlorophenyl)-carbamate] | 33.3 nM | 91.9 nM
8 | O=C(Nc1ccc(Cl)c(Cl)c1)O[C@H]1C[C@H]2CC[C@@H](C1)N2Cc1ccccc1 [Compound 10, (3-endo)-8-Benzyl-8-azabicyclo[3.2.1]octyl-3-N(3′, 4′-dichlorophenyl)-carbamate] | 716 nM | 16.2 nM
9 | COc1cc(OC)c(NC(=O)O[C@H]2C[C@H]3CCC[C@@H](C2)N3Cc2ccccc2)cc1Cl [Compound 6, (3-endo)-9-Benzyl-9-azabicyclo[3.3.1]nonanyl-3-N-(5′-chloro-2′, 4′-dimethoxyphenyl)carbamate] | 189 nM | 22.9 nM
